We go through 1 molecule from article PMC8604788 (ACS chemical biology, 2021).

The target in the test is T1, proline utilization A (SmPutA), bifunctional PRODH-GSALDH enzyme (Sinorhizobium meliloti, UniProt F7X6I3).
T1 sequence (F7X6I3 1-1233): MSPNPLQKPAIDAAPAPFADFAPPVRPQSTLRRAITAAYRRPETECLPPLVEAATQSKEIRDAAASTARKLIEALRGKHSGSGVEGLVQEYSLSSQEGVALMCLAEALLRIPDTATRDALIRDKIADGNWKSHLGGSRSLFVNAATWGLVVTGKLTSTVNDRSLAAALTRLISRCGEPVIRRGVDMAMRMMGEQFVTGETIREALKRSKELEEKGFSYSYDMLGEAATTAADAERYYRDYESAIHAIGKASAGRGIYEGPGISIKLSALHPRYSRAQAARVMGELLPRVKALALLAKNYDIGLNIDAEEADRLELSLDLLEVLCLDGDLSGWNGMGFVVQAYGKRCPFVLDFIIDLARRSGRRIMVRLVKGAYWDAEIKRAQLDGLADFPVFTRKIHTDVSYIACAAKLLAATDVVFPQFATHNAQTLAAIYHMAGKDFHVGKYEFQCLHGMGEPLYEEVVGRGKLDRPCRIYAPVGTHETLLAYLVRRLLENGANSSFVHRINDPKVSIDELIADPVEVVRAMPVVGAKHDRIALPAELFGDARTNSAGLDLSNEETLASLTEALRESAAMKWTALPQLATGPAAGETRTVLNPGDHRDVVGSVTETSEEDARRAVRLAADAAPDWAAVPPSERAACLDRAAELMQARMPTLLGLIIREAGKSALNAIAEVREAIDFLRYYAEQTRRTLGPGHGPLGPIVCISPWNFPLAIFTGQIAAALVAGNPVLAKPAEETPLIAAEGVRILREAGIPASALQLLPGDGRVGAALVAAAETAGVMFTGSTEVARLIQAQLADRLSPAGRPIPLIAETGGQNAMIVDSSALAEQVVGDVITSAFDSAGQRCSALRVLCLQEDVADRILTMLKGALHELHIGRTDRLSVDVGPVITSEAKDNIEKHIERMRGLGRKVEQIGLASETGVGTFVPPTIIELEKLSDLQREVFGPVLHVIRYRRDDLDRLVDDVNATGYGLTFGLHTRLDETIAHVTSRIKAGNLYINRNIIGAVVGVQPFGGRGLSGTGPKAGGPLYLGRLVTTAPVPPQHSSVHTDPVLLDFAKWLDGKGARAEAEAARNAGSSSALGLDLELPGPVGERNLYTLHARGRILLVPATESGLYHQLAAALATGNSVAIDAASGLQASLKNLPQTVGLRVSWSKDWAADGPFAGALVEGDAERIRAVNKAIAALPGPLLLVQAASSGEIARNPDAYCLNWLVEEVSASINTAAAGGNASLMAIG
Put plainly: X-ray crystal structures, noncovalent in the dark. In kind it is biochemical.

Consider `O=C(O)C1SCCS1` [compound 4, 1,3-dithiolane-2-carboxylic acid], for which the IC50 came out at 22.4 µM.

The IC50 is the concentration needed to halve the response being measured.
